# Test results: ChEMBL document CHEMBL1150596, “Gymnasterkoreaynes A-F, cytotoxic polyacetylenes from Gymnaster koraiensis” (2002)
# System: L1210
# Assay: Cytotoxicity against mouse L1210 cells after 48 hrs by WST-1 assay
# Type: functional
# Conditions: L1210, 48 h, read-out: ED50 (the source's name)
row,SMILES,EC50 [µg/mL]
1,C=CCCCCC/C=C\C(O)C#CC#C/C=C/C (stereo not drawn),10.4
2,C=CCCCCC/C=C\C(O)C#CC#CC(O)C=C (stereo not drawn),0.12
3,C/C=C/C#CC#C[C@H](O)CCO [GYMNASTERKOREAYNE A],> 10
4,C=CCCCCC/C=C\[C@H](O)C#CC#CC1OC1C (stereo partly drawn) [GYMNASTERKOREAYNE B],3.3
5,C=CCCCCC/C=C\[C@H](O)C#CC#C[C@H](C=C)OC(C)=O [GYMNASTERKOREAYNE C],2.1
6,C=CCCCCC/C=C\[C@H](O)C#CC#C/C=C/COC(C)=O [GYMNASTERKOREAYNE D],7.7
7,C=CCCCCC/C=C/[C@H](O)C#CC#C[C@@H](O)[C@H](C)O [GYMNASTERKOREAYNE E],9.6
8,C=CCCCCC/C=C\[C@H](O)C#CC#C/C=C/CO [GYMNASTERKOREAYNE F],3.1
